Assays:
Experiment in all cases: microbe, parasite or virus in culture
A(H1N1)pdm09 viruses = assay type: cell-based, influenza A(H1N1)pdm09 virus; conditions: Influenza A virus, H1N1, read-out: median IC50
[1] = test system: B/Yamagata-lineage viruses; assay type: cell-based; conditions: Influenza B virus, read-out: median IC50
A(H3N2) viruses = assay type: cell-based; conditions: Influenza A virus, H3N2, read-out: median IC50
[2] = test system: B/Victoria-lineage viruses; assay type: cell-based; conditions: Influenza B virus, read-out: median IC50

O=C1c2c(O)c(=O)ccn2N([C@@H]2c3ccccc3SCc3c2ccc(F)c3F)[C@@H]2COCCN12 [Baloxavir, baloxavir acid]
IC50 (A(H1N1)pdm09 viruses): 0.28 nM | IC50 [1]: 2.43 nM | IC50 (A(H3N2) viruses): 0.16 nM | IC50 [2]: 3.42 nM

Reference: paper PMC6291754 (Frontiers in Microbiology, 2018)
